Assay results: ChEMBL document CHEMBL5512674, “Novel Acyl Thiourea-Based Hydrophobic Tagging Degraders Exert Potent Anti-Influenza Activity through Two Distinct Endonuclease Polymerase Acidic-Targeted Degradation Pathways” (J Med Chem, 2024)
Calls of active or inactive are those of the source. No cut-off for these calls is given here.

Key:
[1] = Cytotoxicity against human HEK293T cells assessed as reduction in cell viability incubated for 48 hrs by CCK-8 assay; format: toxicity, cell-based, HEK-293T
[2] = Selectivity index, ratio of CC50 for cytotoxicity against human HEK293T cells to EC50 for anti-influenza activity against Influenza A virus A/WSN/33(H1N1) infected in HEK293T cells assessed as reduction in virus-induced cytopathic effect; format: toxicity, cell-based; conditions: read-out: Ratio CC50/EC50
Influenza B virus [3] = experiment: Anti-influenza activity against Influenza B virus Yamagata/16/88 infected in HEK293T cells assessed as reduction in virus-induced cytopathic effect incubated for 48 hrs by CCK-8 assay; format: functional, organism-based; conditions: Yamagata/16/88, HEK-293T
Influenza B virus [4] = experiment: Anti-influenza activity against Influenza B virus Victoria/2/87 infected in HEK293T cells assessed as reduction in virus-induced cytopathic effect incubated for 48 hrs by CCK-8 assay; format: functional, organism-based; conditions: Victoria/2/87, HEK-293T
Influenza A virus [5] = experiment: Anti-influenza activity against Influenza A virus H3N2 infected in HEK293T cells assessed as reduction in virus-induced cytopathic effect incubated for 48 hrs by CCK-8 assay; format: functional, organism-based; conditions: H3N2, HEK-293T
[6] = Half life in mouse liver microsomes preincubated for 5 mins followed by NADPH addition and measured for 45 mins by LC-MS analysis; format: ADME, Microsome; conditions: time 50 min
[7] = Half life in human liver microsomes preincubated for 5 mins followed by NADPH addition and measured for 45 mins by LC-MS analysis; format: ADME, Microsome; conditions: time 50 min
[8] = Intrinsic clearance in mouse liver microsomes preincubated for 5 mins followed by NADPH addition and measured for 45 mins by LC-MS analysis; format: ADME, Microsome; conditions: time 50 min, read-out: CLH
[9] = Intrinsic clearance in human liver microsomes preincubated for 5 mins followed by NADPH addition and measured for 45 mins by LC-MS analysis; format: ADME, Microsome; conditions: time 50 min, read-out: CLH
[10] = Hepatic extraction ratio in mouse liver microsomes preincubated for 5 mins followed by NADPH addition and measured for 45 mins by LC-MS analysis; format: ADME, Microsome; conditions: time 50 min, read-out: ERH
[11] = Half life in human plasma by LC-MS/MS analysis; format: ADME, cell-free
[12] = biological target: T1, von Hippel-Lindau disease tumor suppressor/Polymerase basic protein 2 (Influenza A virus (strain A/Puerto Rico/8/1934 H1N1)) (UniProt P40337+P03428); experiment: PROTAC activity at Influenza A virus A/WSN/33(H1N1) flag tagged Polymerase basic protein 2/VHL (unknown origin) expressed in HEK293T cells assessed as degradation of PB2 expression at 10 ug/ml incubated for 24 hrs by Western blotting analysis; format: cell-based; conditions: dose 10.0 µg/ml
T1 sequence (P03428 whole entry, looked up): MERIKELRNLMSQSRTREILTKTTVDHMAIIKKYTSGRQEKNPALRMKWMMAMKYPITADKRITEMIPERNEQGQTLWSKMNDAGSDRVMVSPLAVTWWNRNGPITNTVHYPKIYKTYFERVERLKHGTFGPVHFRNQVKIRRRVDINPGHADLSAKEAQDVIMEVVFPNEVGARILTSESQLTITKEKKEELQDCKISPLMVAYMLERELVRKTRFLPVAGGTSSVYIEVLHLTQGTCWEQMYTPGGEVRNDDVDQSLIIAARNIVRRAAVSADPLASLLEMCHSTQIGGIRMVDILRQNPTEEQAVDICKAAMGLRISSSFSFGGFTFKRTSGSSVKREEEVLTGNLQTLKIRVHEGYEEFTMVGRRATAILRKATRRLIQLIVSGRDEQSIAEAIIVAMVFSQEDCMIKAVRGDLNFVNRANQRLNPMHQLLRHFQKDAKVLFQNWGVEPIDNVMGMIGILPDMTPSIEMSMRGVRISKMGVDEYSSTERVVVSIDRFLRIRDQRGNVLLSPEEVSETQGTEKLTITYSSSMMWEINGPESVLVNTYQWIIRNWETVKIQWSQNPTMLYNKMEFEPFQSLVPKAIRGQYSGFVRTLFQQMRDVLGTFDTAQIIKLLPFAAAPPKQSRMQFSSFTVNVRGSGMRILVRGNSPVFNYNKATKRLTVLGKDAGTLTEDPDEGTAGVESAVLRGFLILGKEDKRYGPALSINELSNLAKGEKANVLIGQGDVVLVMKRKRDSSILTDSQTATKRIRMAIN
T1 sequence (P40337 whole entry, looked up): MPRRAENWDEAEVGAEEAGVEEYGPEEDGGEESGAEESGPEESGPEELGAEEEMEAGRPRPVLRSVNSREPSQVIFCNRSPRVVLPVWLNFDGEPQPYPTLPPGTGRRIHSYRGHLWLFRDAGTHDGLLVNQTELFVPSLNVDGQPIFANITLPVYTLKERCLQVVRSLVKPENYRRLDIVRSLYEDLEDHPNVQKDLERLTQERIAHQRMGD

[13] = biological target: von Hippel-Lindau disease tumor suppressor/Polymerase acidic protein (Influenza A virus (A/Puerto Rico/8/1934(H1N1)), UniProt P03433+P40337); experiment: PROTAC activity at Influenza A virus A/WSN/33(H1N1) flag tagged Polymerase acidic protein/VHL (unknown origin) expressed in HEK293T cells assessed as degradation of PA expression incubated for 24 hrs by Western blotting analysis; format: cell-based
[14] = biological target: von Hippel-Lindau disease tumor suppressor/Polymerase basic protein 1 (Influenza A virus (strain A/Puerto Rico/8/1934 H1N1)) (UniProt P03431+P40337); experiment: PROTAC activity at Influenza A virus A/WSN/33(H1N1) flag tagged Polymerase basic protein 1/VHL (unknown origin) expressed in HEK293T cells assessed as degradation of PB1 expression at 0.1 to 10 uM incubated for 24 hrs by Western blotting analysis; format: cell-based; conditions: dose 0.1-10 µM
Sequence of von Hippel-Lindau disease tumor suppressor/Polymerase basic protein 1 (Influenza A virus (strain A/Puerto Rico/8/1934 H1N1)) (P03431 whole entry, looked up): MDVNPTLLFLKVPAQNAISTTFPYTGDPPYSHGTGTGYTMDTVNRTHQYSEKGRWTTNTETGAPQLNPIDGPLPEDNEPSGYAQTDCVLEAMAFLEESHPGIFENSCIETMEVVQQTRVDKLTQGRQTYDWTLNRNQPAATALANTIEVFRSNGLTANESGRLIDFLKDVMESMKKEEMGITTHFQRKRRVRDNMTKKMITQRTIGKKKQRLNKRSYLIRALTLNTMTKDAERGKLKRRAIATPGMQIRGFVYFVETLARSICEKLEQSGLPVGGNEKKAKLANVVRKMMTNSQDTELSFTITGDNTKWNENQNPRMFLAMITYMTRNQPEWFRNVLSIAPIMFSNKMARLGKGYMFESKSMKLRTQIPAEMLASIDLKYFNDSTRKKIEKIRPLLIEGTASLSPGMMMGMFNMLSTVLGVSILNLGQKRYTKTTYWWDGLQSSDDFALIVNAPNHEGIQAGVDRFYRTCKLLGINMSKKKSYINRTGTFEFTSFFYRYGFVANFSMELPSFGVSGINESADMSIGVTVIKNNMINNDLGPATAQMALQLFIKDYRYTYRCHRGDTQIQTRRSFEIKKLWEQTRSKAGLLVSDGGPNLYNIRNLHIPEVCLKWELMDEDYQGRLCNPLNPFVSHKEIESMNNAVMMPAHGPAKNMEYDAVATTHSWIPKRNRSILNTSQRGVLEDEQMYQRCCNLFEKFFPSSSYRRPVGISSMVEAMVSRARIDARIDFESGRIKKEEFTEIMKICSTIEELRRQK
Sequence of von Hippel-Lindau disease tumor suppressor/Polymerase basic protein 1 (Influenza A virus (strain A/Puerto Rico/8/1934 H1N1)) (P40337 whole entry, looked up): as the sequence (P40337 whole entry, looked up) above

[15] = biological target: T1, von Hippel-Lindau disease tumor suppressor/Polymerase basic protein 2 (Influenza A virus (strain A/Puerto Rico/8/1934 H1N1)); experiment: PROTAC activity at Influenza A virus A/WSN/33(H1N1) flag tagged Polymerase basic protein 2/VHL (unknown origin) expressed in HEK293T cells assessed as degradation of PB2 expression at 0.1 to 10 uM incubated for 24 hrs by Western blotting analysis; format: cell-based; conditions: dose 0.1-10 µM
[16] = biological target: T2, von Hippel-Lindau disease tumor suppressor/Polymerase acidic protein (Influenza A virus (A/Puerto Rico/8/1934(H1N1))) (UniProt P03433+P40337); experiment: PROTAC activity at Influenza A virus A/WSN/33(H1N1) flag tagged Polymerase acidic protein/VHL (unknown origin) expressed in HEK293T cells assessed as degradation of PA expression at 10 uM incubated for 72 hrs by Western blotting analysis; format: cell-based
[17] = biological target: T2, von Hippel-Lindau disease tumor suppressor/Polymerase acidic protein (Influenza A virus (A/Puerto Rico/8/1934(H1N1))); experiment: PROTAC activity at Influenza A virus A/WSN/33(H1N1) flag tagged Polymerase acidic protein/VHL (unknown origin) expressed in HEK293T cells assessed as degradation of PA expression at 5 uM incubated for 24 hrs by Western blotting analysis; format: cell-based
[18] = biological target: T2, von Hippel-Lindau disease tumor suppressor/Polymerase acidic protein (Influenza A virus (A/Puerto Rico/8/1934(H1N1))); experiment: PROTAC activity at Influenza A virus A/WSN/33(H1N1) flag tagged Polymerase acidic protein/VHL (unknown origin) expressed in HEK293T cells assessed as degradation of PA expression incubated for 2 to 10 hrs in presence of CHX by Western blotting analysis; format: cell-based; conditions: time 2-10 hrs
[19] = biological target: T2, von Hippel-Lindau disease tumor suppressor/Polymerase acidic protein (Influenza A virus (A/Puerto Rico/8/1934(H1N1))); experiment: PROTAC activity at Influenza A virus A/WSN/33(H1N1) flag tagged Polymerase acidic protein/VHL (unknown origin) expressed in HEK293T cells assessed as degradation of PA expression at 5 uM incubated for 24 hrs in presence of bortezomib by Western blotting analysis; format: cell-based
[20] = biological target: T2, von Hippel-Lindau disease tumor suppressor/Polymerase acidic protein (Influenza A virus (A/Puerto Rico/8/1934(H1N1))); experiment: PROTAC activity at Influenza A virus A/WSN/33(H1N1) flag tagged Polymerase acidic protein/VHL (unknown origin) expressed in HEK293T cells assessed as degradation of PA expression at 5 uM incubated for 24 hrs in presence of 3-methyladenine by Western blotting analysis; format: cell-based
Influenza A virus [21] = experiment: Anti-influenza activity against Influenza A virus A/PR/8/34 (H1N1) infected in MDCK cells assessed as inhibition of viral growth at 0.8 nM incubated for 48 hrs by luciferase assay relative to control; format: functional
Enterovirus [22] = experiment: Antiviral activity against Enterovirus CV-A16 infected in RD cells assessed as inhibition of viral replication incubated for 24 hrs by CCK-8 assay; format: functional, organism-based
Enterovirus [23] = experiment: Antiviral activity against Enterovirus CV-B1 infected in RD cells assessed as inhibition of viral replication incubated for 24 hrs by CCK-8 assay; format: functional, organism-based
enterovirus D68 = experiment: Antiviral activity against enterovirus D68 infected in RD cells assessed as inhibition of viral replication incubated for 24 hrs by CCK-8 assay; format: functional, organism-based

CC(C)(C)OC(=O)NCCCC[C@H](NC(=O)OC(C)(C)C)C(=O)NCCCCCCCC(=O)Nc1ccc(NC(=S)NC(=O)c2ccc(C(C)(C)C)cc2)cc1
CC50 at 48 h [1]: > 100000 nM | selectivity ratio [2]: > 6670 | EC50 (Influenza B virus [3]): 73 nM | EC50 (Influenza B virus [4]): 67 nM | EC50 (Influenza A virus [5]): 36 nM | half-life [6]: 32.1 min | half-life [7]: 12.7 min | CLint scaled [8]: 170 mL/min/kg | CLint scaled [9]: 137 mL/min/kg | hepatic extraction ratio at 0.75 h [10]: 0.654 | half-life [11]: 246 min | Activity [12]: inactive | DC50 [13]: 60 nM | Activity [14]: inactive | Activity [15]: inactive | Activity [16]: Active | Activity [17]: Active | Activity [18]: Active | Activity [19]: inactive | Activity [20]: inactive | inhibition at 0.0008 µM (Influenza A virus [21]): 82% | Activity (Enterovirus [22]): Active | Activity (Enterovirus [23]): Active | Activity (enterovirus D68): Active
